Patent US4409239A, “Propylene glycol diester solutions of PGE-type compounds” (Syntex (U.S.A.) Inc., priority 1982, dated 1983)

Key:
[1] = Stability in peanut oil, USP on storage (comparison); type: physicochemical; conditions: 2 weeks storage at 60° C., 50 mcg per ml peanut oil, 20160 min
[2] = Stability of an E-type prostaglandin in propylene glycol dicaprylate/dicaprate (Captex 200) on storage; type: physicochemical; conditions: for % Remaining of Initial Drug Concentration: 0.25 mg/ml in Captex 200, sealed glass ampules
Procedure: A solution of 0.25 mg (dl)-9-keto-11α,15α-dihydroxy-16-phenoxy-17,18,19,20-tetranorprosta-4,5,13-trans-trienoic acid methyl ester per ml in propylene glycol dicaprylate/dicaprate (Captex 200) was made by dissolving said compound in the solvent with the aid of a magnetic stirrer. Aliquots of this solution were filled into glass ampules and sealed. The ampules were then stored at various temperatures for various durations.

Compound: COC(=O)CCC=C=CCC1C(=O)CC(O)C1C=CC(O)COc1ccccc1 (stereo not drawn) [(dl)-9-keto-11α,15α-dihydroxy-16-phenoxy-17,18,19,20-tetranorprosta-4,5,13-trans-trienoic acid methyl ester]
- drug remaining [1]: 77.8%
- % Remaining of Initial Drug Concentration ([2]; 0 month, 45° C.): 100%
- % Remaining of Initial Drug Concentration ([2]; 0 month, 60° C.): 100%
- % Remaining of Initial Drug Concentration ([2]; 1 month, 60° C., 43800 min): 97.6%
- % Remaining of Initial Drug Concentration ([2]; 3 months, 45° C., 131400 min): 100.7%
- % Remaining of Initial Drug Concentration ([2]; 3 months, 60° C., 131400 min): 90.0%
- stability in Captex 200 (in words) ([2]; storage at 45° C. and 60° C., 0.25 mg/ml in Captex 200): quite stable
